Measured values published in patent US12091411B2, “IRAK degraders and uses thereof” (Kymera Therapeutics, Inc., priority 2022, dated 2024).
Like-named read-outs stand apart in the source and are kept apart here.

Biological target: T1, IRAK4 (Homo sapiens, UniProt Q9NWZ3)
T1 construct: Degradation of IRAK4 in OCI-LY10 was quantitatively measured using Meso Scale Discovery technology; endogenous in cells; host or cells: OCI-LY10
T1 sequence (Q9NWZ3 1-460): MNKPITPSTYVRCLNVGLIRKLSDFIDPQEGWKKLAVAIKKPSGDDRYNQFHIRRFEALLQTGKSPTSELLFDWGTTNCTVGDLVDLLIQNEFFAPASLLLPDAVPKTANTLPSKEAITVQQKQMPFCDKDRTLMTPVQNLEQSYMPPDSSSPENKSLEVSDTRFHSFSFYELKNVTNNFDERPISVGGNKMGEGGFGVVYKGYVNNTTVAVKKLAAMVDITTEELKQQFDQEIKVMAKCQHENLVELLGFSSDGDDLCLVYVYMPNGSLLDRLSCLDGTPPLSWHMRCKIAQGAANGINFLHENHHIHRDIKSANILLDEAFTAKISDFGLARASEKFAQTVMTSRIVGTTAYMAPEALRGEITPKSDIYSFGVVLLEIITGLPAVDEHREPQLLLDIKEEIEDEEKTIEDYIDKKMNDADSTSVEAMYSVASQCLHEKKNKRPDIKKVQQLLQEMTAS
Assay: IRAK4 MSD Degradation in OCI-LY10
Format: cell-based
Conditions: OCI-LY10 cells, MSD
Method in brief: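 DC50, from a three-parameter logistic fit and reported as letter bins A (<0.01 μM), B, C, D (>0.2 μM or not tested), reflects IRAK4 loss measured by MSD electrochemiluminescence in OCI-LY10 lysates. Treatment: 8 doses, 1:3 steps, top 1 to 10 μM, 4 to 24 h, 37 °C.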

[1] = 4 hrs incubation, read-out: IRAK4 degradation in OCI-LY10 at 4 hrs: DC50
[2] = 24 hrs incubation, read-out: IRAK4 degradation in OCI-LY10 at 24 hrs: DC50

SMILES | DC50 [1] [nM] | DC50 [2] [nM]
Cn1c(=O)n(C2CCC(=O)NC2=O)c2cccc(C#CCOC3CCN(C[C@H]4CC[C@H](n5cc(NC(=O)c6cnn7ccc(C8COCCN8)nc67)c(C(F)F)n5)CC4)CC3)c21 (some centres unmarked) [I-310] | > 200 | > 200
CN1CCOCC1c1ccn2ncc(C(=O)Nc3cn([C@H]4CC[C@H](CN5CCC(OCC#Cc6cccc7c6n(C)c(=O)n7C6CCC(=O)NC6=O)CC5)CC4)nc3C(F)F)c2n1 (some centres unmarked) [I-311] | > 200 | > 200
Cn1c(=O)n(C2CCC(=O)NC2=O)c2cccc(N3CCC(N(CC(F)F)C[C@H]4CC[C@H](n5cc(NC(=O)c6cnn7cccnc67)c(C(F)F)n5)CC4)CC3)c21 (some centres unmarked) [I-312] | > 200 | > 200
Cn1c(=O)n(C2CCC(=O)NC2=O)c2cccc(N3CCC(N(CC(F)(F)F)C[C@H]4CC[C@H](n5cc(NC(=O)c6cnn7cccnc67)c(C(F)F)n5)CC4)CC3)c21 (some centres unmarked) [I-313] | > 200 | > 200
CN(Cc1ccc(-n2cc(NC(=O)c3cnn4cccnc34)c(C(F)F)n2)cc1)C1CCN(c2cccc3c2n(C)c(=O)n3C2CCC(=O)NC2=O)CC1 (centres unmarked) [I-314] | > 200 | > 200
Cn1c(=O)n(C2CCC(=O)NC2=O)c2cccc(C#CCN3CCN(C[C@H]4CC[C@H](n5cc(NC(=O)c6cnn7ccc(N8CC9(COC9)C8)nc67)c(C(F)F)n5)CC4)CC3)c21 (some centres unmarked) [I-315] | > 200 | < 10
Cn1c(=O)n(C2CCC(=O)NC2=O)c2cccc(C#CCN3CCN(C[C@H]4CC[C@H](n5cc(NC(=O)c6cnn7ccc(N8CC9(CCOCC9)C8)nc67)c(C(F)F)n5)CC4)CC3)c21 (some centres unmarked) [I-316] | > 200 | 10 to 100
Cn1c(=O)n(C2CCC(=O)NC2=O)c2cccc(C#CCN3CCN(C[C@H]4CC[C@H](n5cc(NC(=O)c6cnn7ccc(N8CC9(CCOC9)C8)nc67)c(C(F)F)n5)CC4)CC3)c21 (some centres unmarked) [I-317] | > 200 | > 200
Cn1c(=O)n(C2CCC(=O)NC2=O)c2cccc(C#CCN3CCN(C[C@H]4CC[C@H](n5cc(NC(=O)c6cnn7ccc(N8CC9(CCCOC9)C8)nc67)c(C(F)F)n5)CC4)CC3)c21 (some centres unmarked) [I-318] | 10 to 100 | > 200
Cn1c(=O)n(C2CCC(=O)NC2=O)c2cccc(C#CCN3CCN(C[C@H]4CC[C@H](n5cc(NC(=O)c6cnn7ccc(N8CCC9(CCOCC9)C8)nc67)c(C(F)F)n5)CC4)CC3)c21 (some centres unmarked) [I-319] | > 200 | < 10
Cn1c(=O)n(C2CCC(=O)NC2=O)c2cccc(C#CCN3CCN(C[C@H]4CC[C@H](n5cc(NC(=O)c6cnn7ccc(N8CCC9(COC9)C8)nc67)c(C(F)F)n5)CC4)CC3)c21 (some centres unmarked) [I-320] | < 10 | > 200
Cn1c(=O)n(C2CCC(=O)NC2=O)c2cccc(C#CCN3CCN(C[C@H]4CC[C@H](n5cc(NC(=O)c6cnn7ccc(N8CCC9(CCOC9)C8)nc67)c(C(F)F)n5)CC4)CC3)c21 (some centres unmarked) [I-321] | > 200 | < 10
Cn1c(=O)n(C2CCC(=O)NC2=O)c2cccc(C#CCN3CCN(C[C@H]4CC[C@H](n5cc(NC(=O)c6cnn7ccc(N8CCOC(C(F)(F)F)C8)nc67)c(C(F)F)n5)CC4)CC3)c21 (some centres unmarked) [I-322] | > 200 | > 200
Cn1c(=O)n(C2CCC(=O)NC2=O)c2cccc(C#CCN3CCN(C[C@H]4CC[C@H](n5cc(NC(=O)c6cnn7ccc(N8CC9COCC9C8)nc67)c(C(F)F)n5)CC4)CC3)c21 (some centres unmarked) [I-323] | > 200 | > 200
Cn1c(=O)n(C2CCC(=O)NC2=O)c2cccc(C#CCN3CCN(C[C@H]4CC[C@H](n5cc(NC(=O)c6cnn7ccc(N8CCOC(F)(F)C8)nc67)c(C(F)F)n5)CC4)CC3)c21 (some centres unmarked) [I-324] | > 200 | > 200
Cn1c(=O)n(C2CCC(=O)NC2=O)c2cccc(C#CCOC3CCN(C[C@H]4CC[C@H](n5cc(NC(=O)c6cnn7ccc(N8CC9(COC9)C8)nc67)c(C(F)F)n5)CC4)CC3)c21 (some centres unmarked) [I-325] | > 200 | > 200
Cn1c(=O)n(C2CCC(=O)NC2=O)c2cccc(C#CCOC3CCN(C[C@H]4CC[C@H](n5cc(NC(=O)c6cnn7ccc(N8CC9(CCOCC9)C8)nc67)c(C(F)F)n5)CC4)CC3)c21 (some centres unmarked) [I-326] | 10 to 100 | > 200

SMILES | DC50 [1] [nM] | DC50 [2] [nM]
Cn1c(=O)n(C2CCC(=O)NC2=O)c2cccc(C#CCOC3CCN(C[C@H]4CC[C@H](n5cc(NC(=O)c6cnn7ccc(N8CC9(CCOC9)C8)nc67)c(C(F)F)n5)CC4)CC3)c21 (some centres unmarked) [I-327] | > 200 | < 10
Cn1c(=O)n(C2CCC(=O)NC2=O)c2cccc(C#CCOC3CCN(C[C@H]4CC[C@H](n5cc(NC(=O)c6cnn7ccc(N8CC9(CCCOC9)C8)nc67)c(C(F)F)n5)CC4)CC3)c21 (some centres unmarked) [I-328] | 10 to 100 | > 200
Cn1c(=O)n(C2CCC(=O)NC2=O)c2cccc(C#CCOC3CCN(C[C@H]4CC[C@H](n5cc(NC(=O)c6cnn7ccc(N8CCC9(CCOCC9)C8)nc67)c(C(F)F)n5)CC4)CC3)c21 (some centres unmarked) [I-329] | 10 to 100 | > 200
Cn1c(=O)n(C2CCC(=O)NC2=O)c2cccc(C#CCOC3CCN(C[C@H]4CC[C@H](n5cc(NC(=O)c6cnn7ccc(N8CCC9(COC9)C8)nc67)c(C(F)F)n5)CC4)CC3)c21 (some centres unmarked) [I-330] | > 200 | > 200
Cn1c(=O)n(C2CCC(=O)NC2=O)c2cccc(C#CCOC3CCN(C[C@H]4CC[C@H](n5cc(NC(=O)c6cnn7ccc(N8CCC9(CCOC9)C8)nc67)c(C(F)F)n5)CC4)CC3)c21 (some centres unmarked) [I-331] | 10 to 100 | > 200
Cn1c(=O)n(C2CCC(=O)NC2=O)c2cccc(C#CCOC3CCN(C[C@H]4CC[C@H](n5cc(NC(=O)c6cnn7ccc(N8CC9COCC9C8)nc67)c(C(F)F)n5)CC4)CC3)c21 (some centres unmarked) [I-332] | < 10 | > 200
Cn1c(=O)n(C2CCC(=O)NC2=O)c2cccc(C#CCOC3CCN(C[C@H]4CC[C@H](n5cc(NC(=O)c6cnn7ccc(N8CCOC(C(F)(F)F)C8)nc67)c(C(F)F)n5)CC4)CC3)c21 (some centres unmarked) [I-333] | > 200 | > 200
Cn1c(=O)n(C2CCC(=O)NC2=O)c2cccc(C#CCOC3CCN(C[C@H]4CC[C@H](n5cc(NC(=O)c6cnn7ccc(N8CCOC(F)(F)C8)nc67)c(C(F)F)n5)CC4)CC3)c21 (some centres unmarked) [I-334] | > 200 | > 200
Cn1c(=O)n(C2CCC(=O)NC2=O)c2cccc(C#CCN3CCN(C[C@H]4CC[C@H](n5cc(NC(=O)c6cccc7ccc(N8CCC8)nc67)c(C(F)F)n5)CC4)CC3)c21 (some centres unmarked) [I-335] | > 200 | > 200
Cn1c(=O)n(C2CCC(=O)NC2=O)c2cccc(C#CCOC3CCN(C[C@H]4CC[C@H](n5cc(NC(=O)c6cccc7ccc(N8CCC8)nc67)c(C(F)F)n5)CC4)CC3)c21 (some centres unmarked) [I-336] | > 200 | > 200
Cn1c(=O)n(C2CCC(=O)NC2=O)c2cccc(C#CCN3CCN(C[C@H]4CC[C@H](n5cc(NC(=O)c6cnn7ccc(N8CC9CC(C8)O9)nc67)c(C(F)F)n5)CC4)CC3)c21 (some centres unmarked) [I-337] | > 200 | < 10
Cn1c(=O)n(C2CCC(=O)NC2=O)c2cccc(C#CCN3CCN(C[C@H]4CC[C@H](n5cc(NC(=O)c6cnn7ccc(N8C9COCC8C9)nc67)c(C(F)F)n5)CC4)CC3)c21 (some centres unmarked) [I-338] | > 200 | < 10
Cn1c(=O)n(C2CCC(=O)NC2=O)c2cccc(C#CCN3CCN(C[C@H]4CC[C@H](n5cc(NC(=O)c6cnn7ccc(N8C9CCC8COC9)nc67)c(C(F)F)n5)CC4)CC3)c21 (some centres unmarked) [I-339] | < 10 | > 200
Cn1c(=O)n(C2CCC(=O)NC2=O)c2cccc(C#CCN3CCN([C@H]4CC[C@H](n5cc(NC(=O)c6cnn7ccc(N8C[C@H]9C[C@@H]8CO9)nc67)c(C(F)F)n5)CC4)CC3)c21 (some centres unmarked) [I-340] | > 200 | > 200
Cn1c(=O)n(C2CCC(=O)NC2=O)c2cccc(C#COCC3CCN([C@H]4CC[C@H](n5cc(NC(=O)c6cnn7ccc(N8C[C@H]9C[C@@H]8CO9)nc67)c(C(F)F)n5)CC4)CC3)c21 (some centres unmarked) [I-341] | > 200 | > 200
Cn1c(=O)n(C2CCC(=O)NC2=O)c2cccc(C#CCN3CC4CCC(C3)N4C[C@H]3CC[C@H](n4cc(NC(=O)c5cnn6ccc(N7C[C@H]8C[C@@H]7CO8)nc56)c(C(F)F)n4)CC3)c21 (some centres unmarked) [I-342] | < 10 | > 200
Cn1c(=O)n(C2CCC(=O)NC2=O)c2cccc(C#CCN3C4CCC3CN(C[C@H]3CC[C@H](n5cc(NC(=O)c6cnn7ccc(N8C[C@H]9C[C@@H]8CO9)nc67)c(C(F)F)n5)CC3)C4)c21 (some centres unmarked) [I-343] | > 200 | < 10
